Article PMC9604775, “Bioactive Peptides from Skipjack Tuna Cardiac Arterial Bulbs: Preparation, Identification, Antioxidant Activity, and Stability against Thermal, pH, and Simulated Gastrointestinal Digestion Treatments” (Marine Drugs, 2022)
Read-outs that look alike come from different tables or passages of the source. Where a SMILES comes first, the peptide text is derived from it. Where no end group is shown, it is not given here.

Assays:
H2O2-damaged HepG2 cells = assay type: cell-based
Description: The assay was carried out according to the method described by Hu et al., and the H2O2 concentration of 300 µM was applied to establish the oxidative damage model of HepG2 cells. Briefly, the HepG2 cells with density of 1 × 10^5 cells/well were incubated in a 96-well plate for 24 h. The supernatant in the 96-well plate was aspirated and 100 µL of peptide samples (50.0, 100.0, or 200.0 µM, respectively) were added into the protection groups respectively for incubating 8 h. After removing peptides, H2O2 with the final concentration of 300 µM was joined in the protection and model groups. After incubating for 24 h, the wells were rinsed twice with PBS and the MTT with the final concentration of 0.5 mg/mL was added into. After incubating for 4 h, the formazan crystals formed by active cells were soluble in 150 µL of DMSO and OD570 nm of the solution was determined. Finally, the cell viability was calculated using the equation: Cell viability = (ODsample/ODcontrol) × 100%(2)

[1] = Stability to simulated gastrointestinal digestion (DPPH· scavenging activity); assay type: in vitro ADME; conditions: two-stage model: pepsin 120 min then trypsin 120 min; 0 to 240 min; peptide 2.0 mg/mL; read-out DPPH· scavenging activity
Description: The stability of TCP1 to TCP11 from tuna cardiac arterial bulbs was determined according to the previous method with a slight modification. The DPPH· scavenging activity (%) of TCP1 to TCP11 at 2.0 mg/mL were measured at the set conditions to evaluate their stability.
The thermostability of TCP1 to TCP11 at 20, 40, 60, 80, or 100 °C for 60 min was analyzed in water bath. The influences of pH values of 3, 5, 7, 9, or 11 were employed to estimate the acid and alkali stability properties of TCP1 to TCP11 at 25 °C, and the detecting time was set to 60, 120, and 180 min, respectively. The influence of simulate GI digestion on the stability of TCP1 to TCP11 was evaluated by the two-stage digestion model. In short, APs (TCP1 to TCP11) were separately treated with pepsin for 120 min and trypsin for 120 min.

[2] = peptide 200 μmol/L, 8 h pre-incubation, then 300 µM H2O2 for 24 h, MTT, model group 50.64 ± 2.43%, mean ± SD, n = 3

| Molecule | viability of H2O2-damaged HepG2 cells (H2O2-damaged HepG2 cells; [2]) [%] | viability of H2O2-damaged HepG2 cells (H2O2-damaged HepG2 cells; 8 h, 200 μmol/L) [%] | other results |
| --- | --- | --- | --- |
| YEGGD [TCP6, Tyr-Glu-Gly-Gly-Asp] | 74.68 ± 1.69 | – | – |
| NCCCC[C@H](NC(=O)[C@H](CCCCN)NC(=O)[C@@H]1CCCN1)C(=O)O [TCP3, Pro-Lys-Lys] (H-Pro-Lys-Lys-OH) | – | 81.26 ± 1.86 | – |
| CC(=O)N[C@@H](CS)C(=O)O [N-Acetyl-L-Cysteine (NAC), N-Acetyl-L-Cysteine] | 90.06 ± 3.16 | – | – |
| GPGLM [TCP9, Gly-Pro-Gly-Leu-Met] | – | 78.54 ± 3.06 | – |
| GEQSN [TCP2, Gly-Glu-Gln-Ser-Asn] | – | – | Declined percentage of DPPH· scavenging activity after simulated GI digestion [1]: 4.49% |
